Measurements from patent US12600732B2, “Bifunctional compounds for degrading BTK via ubiquitin proteosome pathway” (NURIX THERAPEUTICS, INC., priority 2019, dated 2026).
Read-outs that look alike come from different tables or passages of the source. Each block holds one molecule with its values, some of them ahead of it.

Experiments:
TMD8 cells [1] = assay: Cell viability assay (CellTiter-Glo), TMD8 cells; conditions: for EC50: Homo sapiens, TMD8, 72 h; for EMAX (% viable cells): TMD8 cells, treatment time 72 h
TMD8 cells [2] = conditions: human, 72 h
BTK [3] = molecular target: T1, BTK (Mus musculus, UniProt P35991); assay: In vivo degradation of BTK in mouse PD experiments with oral dosing; conditions: 24 h, flow cytometry
T1 construct: from tissue; host or cells: mouse blood B cells / splenocytes (CD-1 or BALB/c)
In short: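 BTK in blood or splenocytes read by flow cytometry (or HTRF), degradation taken as B-cell minus T-cell BTK MFI versus vehicle. Mice (CD-1 or BALB/c) received compound orally, initially 90 mg/kg for 6 h, then lower doses and longer time points.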

TMD8 C481S cells [4] = assay: Cell viability assay (CellTiter-Glo), TMD8 C481S cells; conditions: for EC50: Homo sapiens, TMD8, 72 h; for EMAX (% viable cells): TMD8 C481S cells, treatment time 72 h
BTK C481S = BTK C481S (Homo sapiens, UniProt Q06187, C481S); assay: BTK degradation (Total BTK HTRF) in TMD8 cells expressing BTK-C481S; assay type: cell-based; parameters: endogenous in cells; host or cells: TMD8 BTK-C481S (clone2C3), Cas9 RNP knock-in; conditions: TMD8 BTK-C481S (clone2C3) cells, treatment time 4 h
In short: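 DC50 values come from four-parameter regression of background-subtracted HTRF ratios (665/620 nm) normalized to DMSO controls. Total BTK was quantified in lysates of BTK-C481S-expressing TMD8 cells exposed to compound for four hours, using paired donor/acceptor anti-BTK antibodies.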

BTK [5] = molecular target: BTK (Homo sapiens, UniProt Q06187); assay: Cellular BTK degradation assay (Total BTK HTRF) in TMD8 cells; assay type: cell-based; parameters: endogenous in cells; host or cells: TMD8
Experimental: Cellular BTK Degradation Assay
In Vitro Cellular Screening to Determine Potency as Measured by DC50 Values after Four Hour Incubation
BTK levels were determined using Cisbio Total-BTK HTRF (Homologous Time-Resolved Fluorescence) kit (63ADK064PEG) according to the manufacturer's protocol. Briefly, cells were incubated in 1× supplied lysis buffer for 30 minutes. In an opaque white low volume 96-well plate (Cisbio, 66PL96005), cell lysate was combined with two different specific BTK antibodies, one conjugated with Eu^3+-Cryptate FRET donor and one conjugated with d2 FRET acceptor. Assay controls include wells containing cell lysate with only the Eu^3+-Cryptate FRET donor antibody and wells containing both HTRF antibodies and lysis buffer without cells or control lysate provided by Cisbio. HTRF ratio was calculated as (acceptor signal at 665 nm/donor signal at 620 nm)×10^4. Background HTRF levels were determined from the control well containing the donor, but no acceptor, antibody. Background HTRF levels were subtracted from all samples. Readouts were reported as HTRF levels relative to HTRF levels of DMSO-treated cells. Four-parameter non-linear regressions were performed in GraphPad Prism 7.02 to obtain DC50 values.
Cellular BTK degradation was measured as above for four hours in TMD8 cells for two diastereomers of compound 130. DC50 and EC50 values are the concentration at which the response is halfway between the top and bottom of the fitted non-linear regression curve.
The present example evaluates whether potency of BTK CTMs shifts with longer timepoints. DC50 values are typically calculated with a 4-hour timepoint.

TMD8 C481S cells [6] = conditions: human, 72 h
Mino cells = assay: Cell viability assay (CellTiter-Glo), Mino cells; assay type: cell-based; conditions: Mino cells, treatment time 72 h
Excerpt: (§1) This example evaluates effects of CTM-mediated degradation on cell viability. […] Mino and Rec-1 are models of Mantle Cell Lymphoma, which is sensitive to IMiDs.

[7] = system: B cell receptor (BCR) signaling; assay: B cell activation assay (flow cytometry), human B cells; assay type: cell-based; conditions: treatment 4 h, IgM stimulation 18 h
Experimental: (§2) Compound was present throughout the stimulation. Cells were stained with Live/Dead dye (Fisher L34976) and then fluorophore-conjugated antibodies against CD20 (Biolegend 302330), CD3 (BD Pharmingen 557705), CD86 (Biolegend 305416) and CD69 (Biolegend 310906). Stained cells were fixed in PFA and run on an Attune N×T Acoustic Focusing Flow Cytometer (Thermo-Fisher A29004), and data was analyzed using FlowJo (v10.5.3) and GraphPad Prism (v7.00) software. Single live lymphocytes were gated for B cells (CD20+CD3−) and T cells (CD3+CD20−), and the geometric mean fluorescence intensity (MFI) of CD86 and CD69 was calculated for each population. The MFI of the unstimulated sample was used to quantify baseline activation.
(§3) This example evaluates whether CTM treatment affects B cell receptor (BCR) signaling. BTK is activated downstream of the B cell receptor and leads to upregulation of activation markers CD86 and CD69 on the surface of B cells.

[8] = system: B cell receptor (BCR) signaling; assay: B cell activation assay (flow cytometry), mouse B cells; assay type: cell-based; conditions: treatment 4 h, IgM stimulation 18 h
Experimental: as §2, §3

Rec-1 cells = assay: Cell viability assay (CellTiter-Glo), Rec-1 cells; assay type: cell-based
Excerpt: as §1

[9] = oral dose 10 mg/kg, splenocytes

Compound: CN1CCN([C@@H]2CCCN(c3cnc(C(N)=O)c(Nc4ccc(C5(C)CCN(CCCCc6cccc7c6CN(C6CCC(=O)NC6=O)C7=O)CC5)cc4)n3)C2)C1=O (stereo partly shown) [Compound 21]
EC50 (TMD8 cells [1]): 1.6 nM
EMAX (% viable cells) (TMD8 cells [2]): 19%

% BTK Remaining (BTK [3]; oral dose 30 mg/kg, blood): 24%
DC50 (BTK C481S): 9.7 nM
DC50 (BTK [5]; treatment time 24 h): 0.68 nM
Compound: NC(=O)c1ncc(-c2nccs2)nc1Nc1ccc(C2CCN(C[C@@H]3CCN(c4ccc5c(c4)C(=O)N(C4CCC(=O)NC4=O)C5=O)C3)CC2)cc1 (stereo partly shown) [Compound 148]
EC50 (TMD8 C481S cells [4]): 9.18 nM
EMAX (% viable cells) (TMD8 C481S cells [4]): 4%
EC50 (TMD8 cells [1]): 3.27 nM
EMAX (% viable cells) (TMD8 cells [1]): 2%

% BTK Remaining (BTK [3]; oral dose 30 mg/kg, blood): 25%
DC50 (BTK [5]; treatment time 24 h): 4.7 nM
Compound: NC(=O)c1ncc(-c2nccs2)nc1Nc1ccc(N2CCC3(CCN(Cc4ccc5c(c4)C(=O)N(C4CCC(=O)NC4=O)C5=O)CC3)CC2)cc1 (stereo not shown) [Compound 150]

Compound: NC(=O)[C@H]1CCN(c2ncnc(N)c2F)C[C@@H]1N1CCC[C@@H](Nc2cc(Cl)cc(C(F)(F)F)c2)C1=O [Vecabrutinib]
EC50 (TMD8 C481S cells [4]): 530 nM
EC50 (TMD8 cells [1]): 256 nM
EMAX (% viable cells) (TMD8 C481S cells [6]): 51%
EMAX (% viable cells) (TMD8 cells [2]): 38%

% BTK Remaining (BTK [3]; oral dose 3 mg/kg, blood): 40%
% BTK Remaining (BTK [3]; oral dose 3 mg/kg, splenocytes): 39%
% BTK Remaining (BTK [3]; oral dose 10 mg/kg, blood): 25%
% BTK Remaining (BTK [3]; [9]): 23%
DC50 (BTK [5]; treatment time 4 h): 0.26 nM
Compound: CN1CCN([C@@H]2CCCN(c3cnc(C(N)=O)c(Nc4ccc(C5CCN(CC6CCN(c7ccc(C(=O)N[C@H]8CCC(=O)NC8=O)nc7)CC6)CC5)cc4)n3)C2)C1=O [Compound 195]

EC50 ([7]; read-out: CD69 EC50): 2 nM
EC50 ([7]; read-out: CD86 EC50): 3 nM
EC50 ([8]; read-out: CD69 EC50): 1 nM
EC50 ([8]; read-out: CD86 EC50): 3 nM
Compound: CC#CC(=O)N1CCC[C@H]1c1nc(-c2ccc(C(=O)Nc3ccccn3)cc2)c2c(N)nccn12 [Acalabrutinib, acalabrutinib, reference compound]
EC50 (Mino cells; Homo sapiens): 1240 nM
EMAX (% viable cells) (Mino cells): 84%
EC50 (TMD8 C481S cells [4]): > 2000 nM
EMAX (% viable cells) (TMD8 C481S cells [4]): 96%
EC50 (TMD8 cells [1]): 12 nM
EMAX (% viable cells) (TMD8 cells [1]): 35%
EC50 (Rec-1 cells; Homo sapiens, Rec1, treatment time 72 h): 582 nM
EMAX (% viable cells) (Rec-1 cells; treatment time 72 h): 76%

% BTK Remaining (BTK [3]; oral dose 3 mg/kg, blood): 90%
% BTK Remaining (BTK [3]; oral dose 3 mg/kg, splenocytes): 95%
% BTK Remaining (BTK [3]; oral dose 10 mg/kg, blood): 63%
% BTK Remaining (BTK [3]; [9]): 57%
DC50 (BTK [5]; treatment time 4 h): 4.3 nM
Compound: CN1CCN([C@@H]2CCCN(c3cnc(C(N)=O)c(Nc4ccc(C5CCN(CC6CCN(c7ccc(C(=O)N[C@@H]8CCC(=O)NC8=O)nc7)CC6)CC5)cc4)n3)C2)C1=O [Compound 194]
